The text below walks through data of patent US12187709B2 (Genentech, Inc., priority 2021, dated 2025).

The term pKd denotes the negative decadic logarithm of the Kd, by convention in mol/L. A low value points to a high Kd. One may read the pIC50 as −log10 of the IC50, conventionally taken in molar units.

The structures appear in SMILES notation. pIC50, pKd: −log10 of the molar value.

Experiment [1] addresses Human Cbl-b (residues 40-426) (Homo sapiens (Human), UniProt Q13191). The experiment is described as follows: Cbl-b SPR assay. Type of experiment: binding. The following applies: for Fold of selectivity: C-cbl SPR Kd vs Cbl-b SPR Kd; for pKd: SPR, 20° C. In short, it runs like this: (§1)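 Values derive from a 1:1 model fitted to multicycle kinetics on captured protein (1300-1500 RU), using six 2-fold concentrations, 60 s contact and dissociation of 120-1200 s. In the chaser format, kd comes from a single-exponential fit of % site occupancy over time.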

In another experiment the target is Cbl-b (Homo sapiens (Human), UniProt Q13191). The experiment is described as follows: Cbl-b LCK Ub TR-FRET assay (Cbl-b Lck HTRF). The following applies: for pIC50: Cbl-b LCK Ub TR-FRET; for fold-selectivity (Cbl-b over C-cbl) / (fold-selectivity) Cbl-b and C-Cbl Selectivity: ratio C-cbl Lck HTRF IC50 / Cbl-b Lck HTRF IC50. Type of experiment: biochemical. In short, it runs like this:
(§2)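 Detection reagents added, brief spin, 20 min RT. IC50 fit normalized to no-LCK (low) and DMSO (high) controls.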

For the next experiment, the target named is c-Cbl (Homo sapiens (Human), UniProt P22681). The experiment is described as follows: C-Cbl LCK Ub TR-FRET assay (C-cbl Lck HTRF). The class given is biochemical. An outline of the steps:
as §2
(In general: TR-FRET usually uses a lanthanide donor and a delayed reading to cut background.)

Another experiment has as its target c-Cbl (residues 47-435) (Homo sapiens (Human), UniProt P22681). The experiment is described as follows: c-Cbl SPR assay. The note with it: 20° C. The class given is binding. In short, it runs like this: as §1

c-Cbl, sequence (P22681 47-435): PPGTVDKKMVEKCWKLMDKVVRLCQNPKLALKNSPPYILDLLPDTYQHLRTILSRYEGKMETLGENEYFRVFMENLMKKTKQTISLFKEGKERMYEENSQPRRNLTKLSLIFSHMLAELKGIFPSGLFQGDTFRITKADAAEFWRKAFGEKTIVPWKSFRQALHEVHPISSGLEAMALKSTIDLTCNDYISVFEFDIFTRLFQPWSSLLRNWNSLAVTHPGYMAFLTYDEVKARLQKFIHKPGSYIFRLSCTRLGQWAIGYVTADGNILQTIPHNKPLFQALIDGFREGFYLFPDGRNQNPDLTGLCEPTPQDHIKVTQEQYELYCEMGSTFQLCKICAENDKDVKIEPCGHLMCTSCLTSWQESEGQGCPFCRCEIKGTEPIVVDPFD
c-Cbl (residues 47-435), sequence (P22681 47-435): as above
Cbl-b, sequence (Q13191 40-426): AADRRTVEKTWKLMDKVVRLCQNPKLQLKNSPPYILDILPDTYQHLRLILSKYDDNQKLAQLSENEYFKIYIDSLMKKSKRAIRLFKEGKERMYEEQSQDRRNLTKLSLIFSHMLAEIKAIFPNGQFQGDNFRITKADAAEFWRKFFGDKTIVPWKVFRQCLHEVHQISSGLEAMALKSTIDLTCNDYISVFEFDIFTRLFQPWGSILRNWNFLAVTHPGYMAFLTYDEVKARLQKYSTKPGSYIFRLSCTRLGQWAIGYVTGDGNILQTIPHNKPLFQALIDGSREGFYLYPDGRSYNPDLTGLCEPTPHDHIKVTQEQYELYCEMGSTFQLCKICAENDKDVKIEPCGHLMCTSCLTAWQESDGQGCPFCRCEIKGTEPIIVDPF
Human Cbl-b (residues 40-426), sequence (Q13191 40-426): as above

`CC[C@H]1C[C@](c2cccc(N3Cc4c(Cl)cc(CNC5(C)CCC5)cc4C3=O)c2)(c2nncn2C)C1` [Compound 375, 4-chloro-2-(3-((1s,3r)-3-ethyl-1-(4-methyl-4H-1,2,4-triazol-3-yl)cyclobutyl)phenyl)-6-(((1-methylcyclobutyl)amino)methyl)isoindolin-1-one]: in experiment [1], the Fold of selectivity stood at 11× and the pKd was 9.00. In addition, on Cbl-b, the pIC50 was 8.19 and the “fold-selectivity (Cbl-b over C-cbl)” value was 2.5x. At c-Cbl, the pIC50 was 7.80. The compound also showed a pKd at c-Cbl (residues 47-435) of 7.96.
`CCCN1CC(c2cc3c(c(C(F)(F)F)c2)CN(c2cccc([C@H](c4nncn4C)C4COC4)c2)C3=O)C1` [Compound 386, (R)-2-(3-((4-methyl-4H-1,2,4-triazol-3-yl)(oxetan-3-yl)methyl)phenyl)-6-(1-propylazetidin-3-yl)-4-(trifluoromethyl)isoindolin-1-one]: the Fold of selectivity in experiment [1] was found to be 2.4×. The results for the negative-log Kd (pKd) (in experiment [1]; at c-Cbl (residues 47-435)) were 6.96 and 6.49, respectively. Also, the values for the negative logarithm of the IC50 (pIC50) on Cbl-b and on c-Cbl were 6.96 and 6.54, respectively. Further, the “fold-selectivity (Cbl-b over C-cbl)” value on Cbl-b was 2.6x.
In turn, `Cn1cnnc1[C@]1(c2cccc(N3Cc4c(cc(CNC5(C)CCC5)cc4C(F)(F)F)C3=O)c2)C[C@@](O)(C(F)F)C1` [Compound 405, 2-(3-((1s,3s)-3-(difluoromethyl)-3-hydroxy-1-(4-methyl-4H-1,2,4-triazol-3-yl)cyclobutyl)phenyl)-6-(((1-methylcyclobutyl)amino)methyl)-4-(trifluoromethyl)isoindolin-1-one] came in with a Fold of selectivity in experiment [1] of 7.7×. The figures for the pKd (in experiment [1]; on c-Cbl (residues 47-435)) were 8.03 and 7.12, respectively. For the same compound, the figures for the negative logarithm of the IC50 (pIC50) at Cbl-b (Example 121) and against c-Cbl were 7.82 and 7.11, respectively. The “(fold-selectivity) Cbl-b and C-Cbl Selectivity” value on Cbl-b stood at 5.3x.
In the case of `CO[C@H]1C[C@](c2cccc(N3Cc4c(cc(CNC5CCC5)cc4C(F)(F)F)C3=O)c2)(c2nncn2C)C1` [Compound 414, 6-((cyclobutylamino)methyl)-2-(3-((1r,3r)-3-methoxy-1-(4-methyl-4H-1,2,4-triazol-3-yl)cyclobutyl)phenyl)-4-(trifluoromethyl)isoindolin-1-one], the Fold of selectivity in experiment [1] was found to be 7.7×. Besides, the values for the negative-log Kd (pKd) (in experiment [1]; at c-Cbl (residues 47-435)) were 8.00 and 7.11, respectively. Also, the pIC50 was 8.03 at Cbl-b (Example 121) and 7.30 on c-Cbl. Also, the “(fold-selectivity) Cbl-b and C-Cbl Selectivity” value at Cbl-b is on record as 5.2x.
Turning to `CO[C@H]1C[C@](c2cccc(N3Cc4c(cc(CNCC5CC5)cc4C(F)(F)F)C3=O)c2)(c2nncn2C)C1` [Compound 415, 6-(((cyclopropylmethyl)amino)methyl)-2-(3-((1r,3r)-3-methoxy-1-(4-methyl-4H-1,2,4-triazol-3-yl)cyclobutyl)phenyl)-4-(trifluoromethyl)isoindolin-1-one], the Fold of selectivity in experiment [1] turned out to be 13×. Also, the negative-log Kd (pKd) in experiment [1] is 8.30; at c-Cbl (residues 47-435), 7.20. For the same compound, the negative logarithm of the IC50 (pIC50) is 7.96 against Cbl-b (Example 121) and 7.32 against c-Cbl. Besides, the “(fold-selectivity) Cbl-b and C-Cbl Selectivity” value on Cbl-b is on record as 4.2x.
In the case of `CO[C@H]1C[C@](c2cccc(N3Cc4c(cc(CNCC5CCC5)cc4C(F)(F)F)C3=O)c2)(c2nncn2C)C1` [Compound 416, 6-(((cyclobutylmethyl)amino)methyl)-2-(3-((1r,3r)-3-methoxy-1-(4-methyl-4H-1,2,4-triazol-3-yl)cyclobutyl)phenyl)-4-(trifluoromethyl)isoindolin-1-one], in experiment [1], the Fold of selectivity came to 13×. In addition, the negative logarithm of the Kd (pKd) in experiment [1] was 9.06; on c-Cbl (residues 47-435), 7.92. For the same compound, the results for the pIC50 against Cbl-b (Example 121) and against c-Cbl were 8.12 and 7.96, respectively. Besides, the “(fold-selectivity) Cbl-b and C-Cbl Selectivity” value at Cbl-b was determined as 1.5x.
`CO[C@H]1C[C@](c2cccc(N3Cc4c(cc(CN5CCOCC5)cc4C(F)(F)F)C3=O)c2)(c2nncn2C)C1` [Compound 417, 2-(3-((1r,3r)-3-methoxy-1-(4-methyl-4H-1,2,4-triazol-3-yl)cyclobutyl)phenyl)-6-(morpholinomethyl)-4-(trifluoromethyl)isoindolin-1-one] came in with a Fold of selectivity in experiment [1] of 7.2×. Moreover, the negative logarithm of the Kd (pKd) in experiment [1] is 5.96; on c-Cbl (residues 47-435), 5.07. Also, the pIC50 at Cbl-b (Example 121) was 6.32; against c-Cbl it was 5.49. Moreover, the “(fold-selectivity) Cbl-b and C-Cbl Selectivity” value at Cbl-b worked out at 6.6x.
In experiment [1], `CO[C@H]1C[C@](c2cccc(N3Cc4c(cc(CN5CCCC5)cc4C(F)(F)F)C3=O)c2)(c2nncn2C)C1` [Compound 418, 2-(3-((1r,3r)-3-methoxy-1-(4-methyl-4H-1,2,4-triazol-3-yl)cyclobutyl)phenyl)-6-(pyrrolidin-1-ylmethyl)-4-(trifluoromethyl)isoindolin-1-one] had a Fold of selectivity of 8.7×. In addition, the values for the pKd (in experiment [1]; at c-Cbl (residues 47-435)) were 6.85 and 5.92, respectively. Also, the pIC50 against Cbl-b (Example 121) was 6.74; on c-Cbl, 5.85. In addition, the “(fold-selectivity) Cbl-b and C-Cbl Selectivity” value on Cbl-b turned out to be 7.3x.
As to `CO[C@H]1C[C@](c2cccc(N3Cc4c(cc(CNC(C)C)cc4C(F)(F)F)C3=O)c2)(c2nncn2C)C1` [Compound 419, 6-((isopropylamino)methyl)-2-(3-((1r,3r)-3-methoxy-1-(4-methyl-4H-1,2,4-triazol-3-yl)cyclobutyl)phenyl)-4-(trifluoromethyl)isoindolin-1-one], in experiment [1], the Fold of selectivity was found to be 8.2×. In addition, the pKd was 7.49 in experiment [1] and 6.62 on c-Cbl (residues 47-435). For the same compound, the results for the pIC50 against Cbl-b (Example 121) and at c-Cbl were 7.54 and 6.72, respectively. The “(fold-selectivity) Cbl-b and C-Cbl Selectivity” value on Cbl-b was found to be 6.7x.
On to `CO[C@H]1C[C@](c2cccc(N3Cc4c(cc(CNCC(C)C)cc4C(F)(F)F)C3=O)c2)(c2nncn2C)C1` [Compound 421, 6-((isobutylamino)methyl)-2-(3-((1r,3r)-3-methoxy-1-(4-methyl-4H-1,2,4-triazol-3-yl)cyclobutyl)phenyl)-4-(trifluoromethyl)isoindolin-1-one], for which, in experiment [1], the Fold of selectivity was determined as 14×. The pKd is 8.77 in experiment [1] and 7.62 at c-Cbl (residues 47-435). Also, the pIC50 was 8.19 against Cbl-b (Example 121) and 7.77 against c-Cbl. In addition, the “(fold-selectivity) Cbl-b and C-Cbl Selectivity” value on Cbl-b was 2.6x.
`CO[C@H]1C[C@](c2cccc(N3Cc4c(cc(CN5CC(O)C5)cc4C(F)(F)F)C3=O)c2)(c2nncn2C)C1` [Compound 422, 6-((3-hydroxyazetidin-1-yl)methyl)-2-(3-((1r,3r)-3-methoxy-1-(4-methyl-4H-1,2,4-triazol-3-yl)cyclobutyl)phenyl)-4-(trifluoromethyl)isoindolin-1-one] displayed a Fold of selectivity in experiment [1] of 5.3×. The pKd in experiment [1] was 6.47; on c-Cbl (residues 47-435) it was 5.74. The results for the pIC50 at Cbl-b (Example 121) and at c-Cbl were 6.66 and 5.80, respectively. For the same compound, the “(fold-selectivity) Cbl-b and C-Cbl Selectivity” value at Cbl-b worked out at 7.2x.
Consider `CO[C@H]1C[C@](c2cccc(N3Cc4c(cc(CN5CC6(CC6)C5)cc4C(F)(F)F)C3=O)c2)(c2nncn2C)C1` [Compound 423, 6-(5-azaspiro[2.3]hexan-5-ylmethyl)-2-(3-((1r,3r)-3-methoxy-1-(4-methyl-4H-1,2,4-triazol-3-yl)cyclobutyl)phenyl)-4-(trifluoromethyl)isoindolin-1-one], for which, in experiment [1], the Fold of selectivity is reported as 8.7×. Besides, the pKd in experiment [1] was 7.02; on c-Cbl (residues 47-435), 6.08. Further, the pIC50 on Cbl-b (Example 121) was 7.00; on c-Cbl, 6.30. In addition, the “(fold-selectivity) Cbl-b and C-Cbl Selectivity” value at Cbl-b is 5.0x.
Consider `CCC(NCc1cc2c(c(C(F)(F)F)c1)CN(c1cccc([C@]3(c4nncn4C)C[C@H](OC)C3)c1)C2=O)C(=O)OC` (stereo partly drawn) [Compound 425, methyl 2-(((2-(3-((1r,3r)-3-methoxy-1-(4-methyl-4H-1,2,4-triazol-3-yl)cyclobutyl)phenyl)-3-oxo-7-(trifluoromethyl)isoindolin-5-yl)methyl)amino)butanoate], for which the Fold of selectivity in experiment [1] stood at 11×. The negative logarithm of the Kd (pKd) is 6.77 in experiment [1] and 5.72 on c-Cbl (residues 47-435). For the same compound, the negative logarithm of the IC50 (pIC50) is 6.89 at Cbl-b (Example 121) and 6.06 on c-Cbl. In addition, the “(fold-selectivity) Cbl-b and C-Cbl Selectivity” value on Cbl-b worked out at 6.8x.
The compound `CO[C@H]1C[C@](c2cccc(N3Cc4c(cc(CNC5CC6(C5)CC6(F)F)cc4C(F)(F)F)C3=O)c2)(c2nncn2C)C1` (stereo partly drawn) [Compound 426, 6-(((1,1-difluorospiro[2.3]hexan-5-yl)amino)methyl)-2-(3-((1r,3r)-3-methoxy-1-(4-methyl-4H-1,2,4-triazol-3-yl)cyclobutyl)phenyl)-4-(trifluoromethyl)isoindolin-1-one] returned a Fold of selectivity in experiment [1] of 15×. Besides, the pKd in experiment [1] was 8.18; at c-Cbl (residues 47-435) it was 8.00. Further, the figures for the negative logarithm of the IC50 (pIC50) on Cbl-b (Example 121) and on c-Cbl were 7.89 and 7.22, respectively. Also, at Cbl-b, the “(fold-selectivity) Cbl-b and C-Cbl Selectivity” value was 4.6x.
In experiment [1], `CO[C@H]1C[C@](c2cccc(N3Cc4c(cc(CNC5CC6C(C5)C6(F)F)cc4C(F)(F)F)C3=O)c2)(c2nncn2C)C1` (stereo partly drawn) [Compound 427, 6-(((6,6-difluorobicyclo[3.1.0]hexan-3-y)amino)methyl)-2-(3-((1r,3r)-3-methoxy-1-(4-methyl-4H-1,2,4-triazol-3-yl)cyclobutyl)phenyl)-4-(trifluoromethyl)isoindolin-1-one] yielded a Fold of selectivity of 14×. The pKd is 8.59 in experiment [1] and 7.43 at c-Cbl (residues 47-435). In addition, the negative-log IC50 (pIC50) against Cbl-b (Example 121) is 8.15; at c-Cbl it was 7.66. Besides, the “(fold-selectivity) Cbl-b and C-Cbl Selectivity” value on Cbl-b is listed as 3.1x.
